The subject of assay [1] is Mouse TAAR 1. The experiment in a line: cAMP Biotrak EIA functional assay in HEK293 cells stably expressing the receptor.
Procedure: (§1) The amount of cAMP produced by HEK293 cells stably expressing the indicated receptor in response to stimulation by each of the listed compounds was measured using the cAMP Biotrak EIA System (Amersham). Shown are the EC50 values in µM (means of at least three independent experiments; EC50 values are calculated from experiments carried out with 12 concentrations each in duplicates evenly distributed in the range of 30 µM - 0.1 nM). The maximal response is represented as percentage of the maximal cAMP levels induced by p-TYR.
(§2) cAMP assay: cAMP was assayed using the cAMP Biotrak Enzymeimmunoassay (EIA) System from Amersham as described in the product manual, following the so-called Non-acetylation EIA procdure.
(§3) In the protocol the following minor modifications were introduced: After stimulation of HEK cells in 96 well plates the reaction was stopped by applying equal volume of pre cooled (-20°C) ethanol. Lysis of cells was not achieved by applying the lysis buffer supplied with the kit, but with transferring the 96 well plates to -80°C for a minimum of 6 hrs (up to several days). Thereafter the contents of the 96 well plates was dried at 50°C over night, and the material remaining in the 96 well plates was resuspended in 200 µl of the assay buffer (the buffer used for resuspending all reagents of the kit). The resuspension were assayed in serial dilutions in assay buffer.
Assay [2] deals with Mouse TAAR 1.
Procedure: as §1, §2, §3

SMILES strings stand for the structures. Read-outs that look alike come from different tables or passages of the source.

As usually defined, the EC50 is the concentration giving half of the maximal effect. Read a low EC50 as greater potency. With `CNCCc1ccc(O)cc1` [N-methyl-p-tyramine], the EC50 with Mouse TAAR 1 [1] was 1020 ± 390 nM. The same compound showed a Max in the assay with Mouse TAAR 1 [1] (hek293 cells) of 100%. Consider `CNCCc1ccccc1` [N-methyl-β-PEA], for which the Max in the assay on Mouse TAAR 1 [1] (hek293 cells) came to 100%. Same read-out and setting: the result for `NCCc1c[nH]c2ccccc12` [TRY, tryptamine] reads 100%. Compound `NCCc1ccc(O)cc1` [p-TYR, p-tyramine] yielded an EC50 in the assay with Mouse TAAR 1 [2] of 1370 ± 330 nM. In the assay on Mouse TAAR 1 [1] (maximal response as percentage of the maximal cAMP levels induced by p-TYR, HEK293 cells stably expressing mTAAR1), the Max is on record as 100%. For the compound `NCCc1ccccc1` [β-PEA, β-phenylethylamine], the Max in the assay on Mouse TAAR 1 [1] (hek293 cells) was found to be 100%.

Source of the values: EP1627887A2, “Mouce trace amine associated receptors” (F.HOFFMANN-LA ROCHE AG, priority 2004, dated 2006).
